The values that follow come from US10106538B2, “Inhibitors of protein kinases” (PRINCETON DRUG DISCOVERY INC, priority 2015, dated 2018).

Bounds are passed on as bounds.

What all share (test): Off-chip Mobility Shift Assay (MSA) kinase inhibition
Format in all cases: biochemical

In one test the target is T1, PDGFRα (Homo sapiens, UniProt P16234).
T1 construct: purchased Carna Biosciences
The note with it: for inhibition at 0.1 µM: inhibitor concentration 0.1 μM. The gist of the method:
(§1)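 Reactions containing test compound, kinase, substrate, ATP and metal ions ran for 1 or 5 hour(s) at room temperature in HEPES buffer (20 mM, pH 7.5) with 0.01% Triton X100 and 2 mM DTT. Phosphorylation was quantified by off-chip mobility shift.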

Another test deals with T2, FGFR2 (Homo sapiens, UniProt P21802).
T2 construct: purchased Carna Biosciences
The following applies: for inhibition at 0.1 µM: inhibitor concentration 0.1 μM. The gist of the method:
as §1

Another test deals with T3, PIK3CA/PIK3R1 (Homo sapiens, UniProt P42336).
T3 construct: purchased Carna Biosciences
The note with it: for inhibition at 0.1 µM: inhibitor concentration 0.1 μM. In a few lines:
as §1

The target of a further test is T4, JAK3 (Homo sapiens, UniProt P52333).
T4 construct: purchased Carna Biosciences
T4 sequence (P52333 1-1124): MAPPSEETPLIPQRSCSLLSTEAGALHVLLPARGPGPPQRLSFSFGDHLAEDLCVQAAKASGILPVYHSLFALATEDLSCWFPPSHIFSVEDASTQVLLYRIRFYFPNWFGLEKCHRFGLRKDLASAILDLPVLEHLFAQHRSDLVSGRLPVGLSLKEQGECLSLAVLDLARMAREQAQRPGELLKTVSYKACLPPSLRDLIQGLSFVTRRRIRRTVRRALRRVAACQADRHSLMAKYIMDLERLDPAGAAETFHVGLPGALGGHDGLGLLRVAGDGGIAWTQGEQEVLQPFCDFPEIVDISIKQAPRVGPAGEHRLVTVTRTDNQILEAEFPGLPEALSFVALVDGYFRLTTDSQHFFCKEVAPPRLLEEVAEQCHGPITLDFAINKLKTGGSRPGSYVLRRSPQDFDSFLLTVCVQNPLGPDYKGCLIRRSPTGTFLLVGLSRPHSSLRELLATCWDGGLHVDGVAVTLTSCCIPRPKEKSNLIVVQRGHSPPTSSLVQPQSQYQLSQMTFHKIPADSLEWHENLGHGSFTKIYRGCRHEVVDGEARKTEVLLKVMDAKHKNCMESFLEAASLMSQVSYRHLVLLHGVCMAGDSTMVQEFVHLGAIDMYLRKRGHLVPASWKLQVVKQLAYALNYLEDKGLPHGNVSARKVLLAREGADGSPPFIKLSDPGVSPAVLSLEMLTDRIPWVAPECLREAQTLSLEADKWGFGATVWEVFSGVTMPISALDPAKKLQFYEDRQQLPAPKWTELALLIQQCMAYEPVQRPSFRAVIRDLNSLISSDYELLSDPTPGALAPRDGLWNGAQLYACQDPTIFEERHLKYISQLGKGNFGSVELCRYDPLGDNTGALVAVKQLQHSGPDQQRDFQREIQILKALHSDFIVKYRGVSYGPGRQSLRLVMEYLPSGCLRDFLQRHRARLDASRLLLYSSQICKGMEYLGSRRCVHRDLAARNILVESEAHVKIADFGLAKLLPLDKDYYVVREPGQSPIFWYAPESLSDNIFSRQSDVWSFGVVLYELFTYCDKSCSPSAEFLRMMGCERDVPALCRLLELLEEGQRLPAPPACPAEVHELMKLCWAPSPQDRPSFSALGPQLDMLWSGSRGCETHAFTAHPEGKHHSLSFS
The note with it: for inhibition at 0.1 µM: inhibitor concentration 0.1 μM. The gist of the method: as §1

A further test addresses T5, MNK1 (Homo sapiens, UniProt Q9BUB5).
T5 construct: purchased Carna Biosciences
The note with it: for inhibition at 0.1 µM: inhibitor concentration 0.1 μM. The gist of the method: as §1

In a further test the target is T6, MAP2K1 (Homo sapiens, UniProt Q02750).
T6 construct: purchased Carna Biosciences
The following applies: for inhibition at 0.1 µM: inhibitor concentration 0.1 μM. In a few lines:
as §1

A further test concerns the target T7, BTK (Homo sapiens, UniProt Q06187).
T7 construct: purchased Carna Biosciences
The following applies: for inhibition at 0.1 µM: inhibitor concentration 0.1 μM. In a few lines: as §1

The target of another test is T8, BRK (Homo sapiens, UniProt Q13882).
T8 construct: purchased Carna Biosciences
T8 sequence (Q13882 whole entry): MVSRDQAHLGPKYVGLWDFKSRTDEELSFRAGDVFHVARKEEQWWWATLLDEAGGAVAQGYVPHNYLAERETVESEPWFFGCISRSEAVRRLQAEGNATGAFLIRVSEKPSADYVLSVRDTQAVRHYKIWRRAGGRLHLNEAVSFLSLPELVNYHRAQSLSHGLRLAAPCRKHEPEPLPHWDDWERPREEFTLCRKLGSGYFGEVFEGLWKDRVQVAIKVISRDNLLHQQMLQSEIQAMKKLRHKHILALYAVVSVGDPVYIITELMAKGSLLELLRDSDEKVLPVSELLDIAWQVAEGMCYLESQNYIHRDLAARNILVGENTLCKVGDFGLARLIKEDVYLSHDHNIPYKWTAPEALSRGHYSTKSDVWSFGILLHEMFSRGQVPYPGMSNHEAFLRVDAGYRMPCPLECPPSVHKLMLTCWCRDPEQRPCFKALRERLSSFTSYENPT
The note with it: for inhibition at 0.1 µM: inhibitor concentration 0.1 μM. In a few lines: as §1

In the next test the target is T9, SRM (Homo sapiens, UniProt Q9H3Y6).
T9 construct: purchased Carna Biosciences
The note with it: for inhibition at 0.1 µM: inhibitor concentration 0.1 μM. The gist of the method:
as §1

In the next test the target is T10, HER4 (Homo sapiens, UniProt Q15303).
T10 construct: purchased Carna Biosciences
T10 sequence (Q15303 26-1308): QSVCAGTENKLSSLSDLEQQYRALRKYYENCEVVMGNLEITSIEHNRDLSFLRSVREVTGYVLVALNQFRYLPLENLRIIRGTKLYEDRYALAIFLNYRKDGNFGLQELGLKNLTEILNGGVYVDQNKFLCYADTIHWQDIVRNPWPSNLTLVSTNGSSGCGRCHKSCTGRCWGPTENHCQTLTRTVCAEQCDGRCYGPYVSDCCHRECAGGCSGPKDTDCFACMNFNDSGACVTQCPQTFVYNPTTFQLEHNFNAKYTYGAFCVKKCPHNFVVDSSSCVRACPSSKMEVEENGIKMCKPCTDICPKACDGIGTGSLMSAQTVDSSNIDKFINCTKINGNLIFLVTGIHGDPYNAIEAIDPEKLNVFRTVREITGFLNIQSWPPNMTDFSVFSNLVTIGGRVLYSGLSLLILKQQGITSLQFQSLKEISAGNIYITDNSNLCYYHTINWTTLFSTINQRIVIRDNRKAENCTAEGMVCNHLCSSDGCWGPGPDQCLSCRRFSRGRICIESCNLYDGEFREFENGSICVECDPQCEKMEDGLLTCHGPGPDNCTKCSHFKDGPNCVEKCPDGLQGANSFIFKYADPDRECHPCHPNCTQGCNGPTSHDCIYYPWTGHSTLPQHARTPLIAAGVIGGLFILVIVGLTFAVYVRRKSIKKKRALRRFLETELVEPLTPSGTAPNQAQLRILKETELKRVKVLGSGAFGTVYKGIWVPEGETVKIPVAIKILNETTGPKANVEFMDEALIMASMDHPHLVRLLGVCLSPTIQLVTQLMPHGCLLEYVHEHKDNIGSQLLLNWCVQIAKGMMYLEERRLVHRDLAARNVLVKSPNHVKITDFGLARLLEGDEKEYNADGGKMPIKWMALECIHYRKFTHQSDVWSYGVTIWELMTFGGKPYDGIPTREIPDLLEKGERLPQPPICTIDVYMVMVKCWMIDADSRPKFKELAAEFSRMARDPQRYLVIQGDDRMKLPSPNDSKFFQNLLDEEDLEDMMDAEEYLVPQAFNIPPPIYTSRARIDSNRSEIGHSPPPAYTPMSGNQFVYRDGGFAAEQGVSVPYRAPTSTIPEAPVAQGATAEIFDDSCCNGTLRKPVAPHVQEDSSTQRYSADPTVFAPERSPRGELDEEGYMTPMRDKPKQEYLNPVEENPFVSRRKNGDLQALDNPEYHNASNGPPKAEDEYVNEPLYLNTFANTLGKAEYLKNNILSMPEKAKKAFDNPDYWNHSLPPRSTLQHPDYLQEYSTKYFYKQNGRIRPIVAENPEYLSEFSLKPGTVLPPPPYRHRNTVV
The following applies: for inhibition at 0.1 µM: inhibitor concentration 0.1 μM. In a few lines: as §1

For another test, the target named is T11, KIT(D816V) (Homo sapiens, UniProt P10721, D816V).
T11 construct: purchased Carna Biosciences
The note with it: for inhibition at 0.1 µM: inhibitor concentration 0.1 μM. In a few lines:
as §1

The next test deals with T12, MNK2 (Homo sapiens, UniProt Q9HBH9).
T12 construct: purchased Carna Biosciences
The following applies: for inhibition at 0.1 µM: inhibitor concentration 0.1 μM. The gist of the method: as §1

A further test has as its target T13, IGF1R (Homo sapiens, UniProt P08069).
T13 construct: purchased Carna Biosciences
The note with it: for inhibition at 0.1 µM: inhibitor concentration 0.1 μM. The gist of the method: as §1

The next test has as its target T14, MAP2K2 (Homo sapiens, UniProt P36507).
T14 construct: purchased Carna Biosciences
The following applies: for inhibition at 0.1 µM: inhibitor concentration 0.1 μM. The gist of the method:
as §1

The next test addresses T15, PDGFRβ (Homo sapiens, UniProt P09619).
T15 construct: purchased Carna Biosciences
The following applies: for inhibition at 0.1 µM: inhibitor concentration 0.1 μM. The gist of the method:
as §1

A further test has as its target T16, RON (Homo sapiens, UniProt Q04912).
T16 construct: purchased Carna Biosciences
The note with it: inhibitor concentration 0.1 μM. In a few lines: as §1

The next test deals with T17, PIM2 (Homo sapiens, UniProt Q9P1W9).
T17 construct: purchased Carna Biosciences
T17 sequence (Q9P1W9 whole entry): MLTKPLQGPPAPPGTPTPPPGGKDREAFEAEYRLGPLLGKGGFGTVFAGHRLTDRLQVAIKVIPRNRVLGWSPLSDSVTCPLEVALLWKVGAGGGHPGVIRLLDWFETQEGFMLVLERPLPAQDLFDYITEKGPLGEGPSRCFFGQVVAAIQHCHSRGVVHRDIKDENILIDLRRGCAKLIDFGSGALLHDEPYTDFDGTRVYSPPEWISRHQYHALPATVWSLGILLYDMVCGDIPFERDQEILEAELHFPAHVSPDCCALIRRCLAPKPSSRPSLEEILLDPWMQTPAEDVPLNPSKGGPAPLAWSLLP
The following applies: inhibitor concentration 0.1 μM. The gist of the method:
as §1

The next test addresses T18, PIM1 (Homo sapiens, UniProt P11309).
T18 construct: purchased Carna Biosciences
The note with it: inhibitor concentration 0.1 μM. In a few lines:
as §1

Another test has as its target T19, MAPKAPK2 (Homo sapiens, UniProt P49137).
T19 construct: purchased Carna Biosciences
The note with it: inhibitor concentration 0.1 μM. The gist of the method: as §1

The next test concerns the target T20, ABL(E255K) (Homo sapiens, UniProt P00519, E255K).
T20 construct: purchased Carna Biosciences
The note with it: inhibitor concentration 0.1 μM. The gist of the method:
as §1

Another test has as its target T21, ABL(T315I) (Homo sapiens, UniProt P00519, T315I).
T21 construct: purchased Carna Biosciences
The note with it: inhibitor concentration 0.1 μM. In a few lines: as §1

A further test addresses T22, MAP3K4 (Homo sapiens, UniProt Q9Y6R4).
T22 construct: purchased Carna Biosciences
The following applies: inhibitor concentration 0.1 μM. In a few lines: as §1

In another test the target is T23, JNK1 (Homo sapiens, UniProt P45983).
T23 construct: purchased Carna Biosciences
The following applies: inhibitor concentration 0.1 μM. In a few lines: as §1

A further test concerns the target T24, PIM3 (Homo sapiens, UniProt Q86V86).
T24 construct: purchased Carna Biosciences
The following applies: inhibitor concentration 0.1 μM. The gist of the method: as §1

Where [1] appears, read: inhibitor concentration 0.01 μM.
Setting [2] is: inhibitor concentration 0.01 μM, 0.01 µM.

T13 sequence (P08069 31-1367): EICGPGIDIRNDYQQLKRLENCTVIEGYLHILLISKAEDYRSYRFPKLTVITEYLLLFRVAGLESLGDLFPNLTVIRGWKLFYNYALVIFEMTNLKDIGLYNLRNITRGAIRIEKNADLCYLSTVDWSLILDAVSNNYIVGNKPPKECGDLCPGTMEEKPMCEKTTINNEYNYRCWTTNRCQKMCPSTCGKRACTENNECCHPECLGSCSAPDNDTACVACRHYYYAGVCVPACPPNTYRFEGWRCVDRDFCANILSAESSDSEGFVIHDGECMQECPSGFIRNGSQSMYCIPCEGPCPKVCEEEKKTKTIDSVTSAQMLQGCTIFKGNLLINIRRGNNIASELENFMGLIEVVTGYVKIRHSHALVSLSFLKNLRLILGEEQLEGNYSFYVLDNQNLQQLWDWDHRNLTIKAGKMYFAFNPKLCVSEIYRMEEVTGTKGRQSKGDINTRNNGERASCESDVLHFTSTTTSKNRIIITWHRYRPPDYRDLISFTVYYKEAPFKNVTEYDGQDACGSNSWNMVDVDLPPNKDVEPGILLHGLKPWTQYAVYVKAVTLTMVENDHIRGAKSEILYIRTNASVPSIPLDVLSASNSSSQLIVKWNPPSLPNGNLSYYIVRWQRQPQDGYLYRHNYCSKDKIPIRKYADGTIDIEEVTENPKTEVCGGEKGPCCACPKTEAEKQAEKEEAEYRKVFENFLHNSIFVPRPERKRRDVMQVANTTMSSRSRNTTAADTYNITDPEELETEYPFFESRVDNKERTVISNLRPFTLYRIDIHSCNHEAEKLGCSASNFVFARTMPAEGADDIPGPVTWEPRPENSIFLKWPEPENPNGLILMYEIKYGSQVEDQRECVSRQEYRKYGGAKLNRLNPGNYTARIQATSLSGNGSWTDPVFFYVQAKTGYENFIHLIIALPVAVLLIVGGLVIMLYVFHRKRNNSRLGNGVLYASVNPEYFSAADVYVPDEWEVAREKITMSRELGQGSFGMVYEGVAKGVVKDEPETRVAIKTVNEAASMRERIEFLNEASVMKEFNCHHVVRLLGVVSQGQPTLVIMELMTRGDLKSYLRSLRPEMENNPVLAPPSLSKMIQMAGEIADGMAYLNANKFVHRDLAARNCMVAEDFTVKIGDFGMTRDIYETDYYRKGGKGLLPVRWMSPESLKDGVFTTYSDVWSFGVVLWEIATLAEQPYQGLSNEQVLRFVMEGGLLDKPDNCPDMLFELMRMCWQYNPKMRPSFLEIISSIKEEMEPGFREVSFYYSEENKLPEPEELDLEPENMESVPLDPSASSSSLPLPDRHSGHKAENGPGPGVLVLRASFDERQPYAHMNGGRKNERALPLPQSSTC
T16 sequence (Q04912 25-1400): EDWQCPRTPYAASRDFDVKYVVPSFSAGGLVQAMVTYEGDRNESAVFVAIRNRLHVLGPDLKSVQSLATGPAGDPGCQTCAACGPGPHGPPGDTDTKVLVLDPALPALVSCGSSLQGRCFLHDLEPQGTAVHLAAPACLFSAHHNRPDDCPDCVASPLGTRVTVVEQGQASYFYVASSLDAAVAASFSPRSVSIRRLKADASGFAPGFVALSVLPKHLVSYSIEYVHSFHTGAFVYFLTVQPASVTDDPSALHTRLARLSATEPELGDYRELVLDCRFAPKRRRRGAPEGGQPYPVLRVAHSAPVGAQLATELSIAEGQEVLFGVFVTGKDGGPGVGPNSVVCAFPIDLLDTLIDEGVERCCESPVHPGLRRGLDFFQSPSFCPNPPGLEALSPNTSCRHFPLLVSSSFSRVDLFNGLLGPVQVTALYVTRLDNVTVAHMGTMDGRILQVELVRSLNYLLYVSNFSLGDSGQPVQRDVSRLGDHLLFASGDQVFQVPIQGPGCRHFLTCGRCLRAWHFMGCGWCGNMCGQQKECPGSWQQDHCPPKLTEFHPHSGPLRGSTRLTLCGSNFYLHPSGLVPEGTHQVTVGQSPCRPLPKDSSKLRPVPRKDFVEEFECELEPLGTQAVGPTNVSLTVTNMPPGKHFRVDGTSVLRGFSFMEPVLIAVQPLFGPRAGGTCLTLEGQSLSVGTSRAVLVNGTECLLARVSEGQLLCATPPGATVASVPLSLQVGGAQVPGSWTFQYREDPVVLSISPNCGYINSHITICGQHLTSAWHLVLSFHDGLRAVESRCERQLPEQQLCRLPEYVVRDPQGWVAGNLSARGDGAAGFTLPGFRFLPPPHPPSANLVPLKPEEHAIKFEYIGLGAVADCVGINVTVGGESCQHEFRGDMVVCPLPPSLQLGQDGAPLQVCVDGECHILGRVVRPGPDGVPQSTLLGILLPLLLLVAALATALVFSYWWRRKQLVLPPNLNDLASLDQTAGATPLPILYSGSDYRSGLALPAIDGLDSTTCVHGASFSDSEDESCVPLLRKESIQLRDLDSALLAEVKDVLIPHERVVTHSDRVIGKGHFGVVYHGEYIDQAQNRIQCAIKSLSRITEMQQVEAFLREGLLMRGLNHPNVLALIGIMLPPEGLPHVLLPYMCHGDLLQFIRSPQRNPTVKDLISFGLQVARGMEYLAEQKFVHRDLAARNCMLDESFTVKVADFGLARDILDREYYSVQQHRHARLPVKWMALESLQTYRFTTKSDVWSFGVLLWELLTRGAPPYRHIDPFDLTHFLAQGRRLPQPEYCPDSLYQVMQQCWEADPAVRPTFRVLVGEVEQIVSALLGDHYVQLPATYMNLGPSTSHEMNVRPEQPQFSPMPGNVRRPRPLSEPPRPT

In general, inhibition refers to the change of the read-out against control, counted positive when it falls. As for `O=C(c1c(F)ccc(NS(=O)(=O)CCCO)c1F)c1c[nH]c2ncc(-c3ccc(Cl)cc3)cc12` [200-17, N-[3-[5-(4-chlorophenyl)-1H-pyrrolo[2,3-b]pyridine-3-carbonyl]-2,4-difluorophenyl]-3-hydroxypropane-1-sulfonamide], the inhibition at 0.01 µM at PDGFRα (setting [1]) was less than 30%; at JAK3 (setting [1]), less than 30%; on BTK (setting [1]), less than 30%; on BRK (setting [1]), more than 30%; at SRM (setting [1]), more than 30%; at PDGFRβ (setting [1]), less than 30%. Further, the inhibition at 0.1 µM at PDGFRα was more than 50%; on JAK3 it was less than 50%; at BTK, less than 50%; on BRK it was more than 50%; on SRM, more than 50%; on PDGFRβ, less than 50%. In addition, the inhibition at 1 µM was more than 50% at PDGFRα (inhibitor concentration 1 μM); more than 50% on FGFR2 (inhibitor concentration 1 μM); more than 50% on PIK3CA/PIK3R1 (inhibitor concentration 1 μM); more than 50% on JAK3 (inhibitor concentration 1 μM); more than 50% on MNK1 (inhibitor concentration 1 μM); less than 50% on MAP2K1 (inhibitor concentration 1 μM). Also, the inhibition at 1 µM on BTK (inhibitor concentration 1 μM) is less than 50%; on BRK (inhibitor concentration 1 μM), more than 50%; at SRM (inhibitor concentration 1 μM) it was more than 50%; at HER4 (inhibitor concentration 1 μM), more than 50%; at KIT(D816V) (inhibitor concentration 1 μM), more than 50%; at MNK2 (inhibitor concentration 1 μM), more than 50%. Besides, the inhibition at 1 µM on IGF1R (inhibitor concentration 1 μM) is less than 50%; at MAP2K2 (inhibitor concentration 1 μM) it was less than 50%; on PDGFRβ (inhibitor concentration 1 μM), more than 50%.

For `O=C(c1c(F)ccc(NS(=O)(=O)CC(O)CO)c1F)c1c[nH]c2ncc(-c3ccc(Cl)cc3)cc12` (stereo not drawn) [200-73, N-[3-[5-(4-chlorophenyl)-lH-pyrrolo [2,3-b]pyridine-3-carbonyl]-2,4-difluorophenyl]-2,3-dihydroxypropane-l-sulfonamide], the inhibition at 0.1 µM on PDGFRα, at FGFR2, on RON, on PIM2, at PIM1 and on PIK3CA/PIK3R1 was less than 30% throughout. Further, the inhibition at 0.1 µM on MAPKAPK2 was less than 30%; on JAK3, less than 30%; on MNK1 it was less than 30%; at MAP2K1 it was less than 30%; at BTK, less than 30%; on BRK, more than 30%. Further, the inhibition at 0.1 µM on SRM is more than 30%; on HER4, less than 30%; on ABL(E255K), less than 30%; on KIT(D816V), less than 30%; at ABL(T315I), less than 30%; on MNK2 it was less than 30%. For the same compound, the inhibition at 0.1 µM at MAP3K4, at IGF1R, on JNK1, at MAP2K2, on PDGFRβ and on PIM3 was less than 30% throughout.

For `C/C=C/S(=O)(=O)Nc1ccc(F)c(C(=O)c2c[nH]c3ncc(-c4ccc(Cl)cc4)cc23)c1F` [200-93b], at PDGFRα (setting [1]), the PDGFRα inhibition is reported as more than 20%. Besides, the JAK3 inhibition on JAK3 (setting [2]) is reported as less than 20%. Moreover, the BRK inhibition at BRK (setting [2]) is more than 20%. For the same compound, the SRM inhibition on SRM (setting [2]) was more than 20%. Moreover, at KIT(D816V) (setting [2]), the “KIT(D816V) inhibition” value was less than 20%. Moreover, on PDGFRβ (setting [2]), the PDGFRβ inhibition is recorded as less than 20%.

Take `CC(O)CS(=O)(=O)Nc1ccc(F)c(C(=O)c2c[nH]c3ncc(-c4ccc(Cl)cc4)cc23)c1F` (stereo not drawn) [200-115]: the inhibition at 0.1 µM at PDGFRα was more than 30%; on FGFR2, less than 30%; at RON it was less than 30%; at PIM2 it was less than 30%; at PIM1, less than 30%; at PIK3CA/PIK3R1 it was less than 30%. Further, the inhibition at 0.1 µM on MAPKAPK2 is less than 30%; at JAK3, less than 30%; at MNK1 it was less than 30%; at MAP2K1, less than 30%; at BTK, less than 30%; on BRK it was more than 30%. Moreover, the inhibition at 0.1 µM on SRM was more than 30%; on HER4, less than 30%; at ABL(E255K) it was less than 30%; on KIT(D816V) it was less than 30%; on ABL(T315I), less than 30%; on MNK2 it was less than 30%. Besides, the inhibition at 0.1 µM on MAP3K4, at IGF1R, on JNK1, on MAP2K2, at PDGFRβ and on PIM3 was less than 30% each time.

Turning to `CC(=O)CS(=O)(=O)Nc1ccc(F)c(C(=O)c2c[nH]c3ncc(-c4ccc(Cl)cc4)cc23)c1F` [200-117], the inhibition at 0.1 µM was more than 30% on PDGFRα; less than 30% on FGFR2; less than 30% on RON; less than 30% at PIM2; less than 30% on PIM1; less than 30% at PIK3CA/PIK3R1. Moreover, the inhibition at 0.1 µM at MAPKAPK2 is less than 30%; on JAK3 it was less than 30%; at MNK1, less than 30%; on MAP2K1, less than 30%; on BTK, less than 30%; at BRK it was more than 30%. The inhibition at 0.1 µM at SRM is more than 30%; on HER4, less than 30%; on ABL(E255K), less than 30%; at KIT(D816V), less than 30%; on ABL(T315I), less than 30%; at MNK2, more than 30%. For the same compound, the inhibition at 0.1 µM on MAP3K4, at IGF1R, on JNK1, on MAP2K2, on PDGFRβ and at PIM3 was less than 30% in each case.
